From patent publication US20140220154A1, “METHOD OF TREATING PATHOLOGIC HETEROTOPIC OSSIFICATION” (The United States of America, as represented by the …, priority 2011, published 2014)
Entries after “also recorded” stand apart in the source; their conditions may differ.

Columns and labels:
[1] = tested on: bone marrow mesenchymal cells (BMMC); assay: Osteoblastic differentiation of BMMC after removal of Gαs (Von Kossa, Alizarin red staining); format: cell-based, mouse; details: osteogenic media 7 days
Protocol: FIG. 13: Removal of Gαs from bone marrow mesenchymal cells (BMMC) promotes osteoblastic differentiation, which is inhibited by Hh antagonist, GANT-58 treatment in a dose-dependent manner. BMMCs were isolated from Gαsflox/flox mice and infected with a Cre-containing adenovirus (ad-Cre) to remove Gαs or GFP-containing adenovirus (Ad-GFP) control. Cells were grown to confluence and placed in osteogenic media for 7 days. […] No effect of GANT-58 observed in Ad-GFP treated cells (panels c and e compared to a).
HO requires an inappropriate increase in bone forming cells (osteoblasts) The role of Gαs in promoting osteoblastic differentiation was tested. Bone marrow mesenchymal cells (BMMC) (also called mesenchymal stem cells) were isolated from Gαs^flox/flox mice. BMMC were isolated by flushing the bone marrow cavity of 6 week old mice and plating cells in Alpha-MEM, 20% FBS, 100 U/mL penicillin, 100 μg/mL streptomycin, 2 mM glutamine. Prior to reaching confluence cells were treated with a Cre- or GFP-containing adenovirus. Upon reaching confluence cells were switched to osteogenic media (DMEM, 10% lot-selected FBS, 100 U/mL penicillin, […] streptomycin, 2 mM glutamine, 10^-4M L-ascorbic acid 2-phosphate and 10 mM α-glycerol phosphate). These cells were infected with a Cre-containing adenovirus to remove Gαs and cultured under conditions that favor osteogenic differentiation. […]

[2] = tested on: Hh pathway activation (Ptch1, Gli1, HIP); assay: Limb culture of E14.5 limbs with qRT-PCR for markers of Hh pathway activation; format: cell-based; details: Prx1-cre+; Gαs^flox/− mouse limbs isolated at E14.5, cultured in vitro 4 days, 5 μM ATO vs vehicle
Protocol: FIG. 8: ATO inhibits elevated Hh signaling in Prx1-cre+; Gαs^flox/− mouse limbs. Control and Prx1-cre+; Gαs^flox/− mouse limbs were isolated at E14.5 and cultured in vitro for 4 days in the BGJB media containing vehicle or 5 μM ATO. Limbs were then collected, RNA isolated and qRT-PCR was performed for markers of Hh pathway activation (Ptch1, Gli1, HIP). In the absence of ATO, expression of these markers was elevated relative to control (6-fold, 5-fold and 17-fold, respectively).
The formation of HO indicated inappropriate upregulation of a pro-osteogenic pathway (e.g. BMP, Wnt, and/or hedgehog) outside the skeleton. As Gαs is a physiologically important activator of protein kinase A (PKA) and PKA is a potent inhibitor of Hedghehog (Hh) signaling (Jiang, et al., 1995, Cell 80, 563-572), loss of Gαs is likely associated with an upregulation of Hh that was driving HO formation. Accordingly, Hh signaling would be elevated prior to HO formation and overlap in its tissue expression. Quantitative reverse transcriptase polymerase chain reaction (qRT-PCR) was performed on RNA isolated from control and Prx1-cre+; Gαs^flox/− mutant limb tissue at E14.5, prior to HO formation. The following primers were used for qRT-PCR: […]
Relative expression was quantified using the […] method (Livak, et al., 2001, Methods 25, 402-08). […]

[3] = tested on: Prx1-cre+; Gαs^flox/− mice; assay: HO formation in vivo in Prx1-cre+; Gαs^flox/− pups from treated pregnant females (Alizarin Red-Alcian Blue staining); design: species or system mouse
Protocol: FIG. 12: ATO inhibits HO formation in Prx1-cre+; Gαs^flox/− mice. Pregnant females were injected with either […] ATO or vehicle at E13.5, E15.5 and E17.5 and embryos were collected at E18.5. An Alizarin Red-Alcian Blue skeletal prep was performed to assay for the presence of HO between the digits.
Embryos were skinned and placed in 100% EtOH overnight to fix. Embryos were then placed in staining solution for 2 days (50 mL staining solution=2.5 mL 0.3% Alcian Blue, 2.5 mL 0.1% Alizarin Red, 2.5 mL 100% glacial acetic acid, 42.5 mL 70% EtOH). Embryos were rinsed with water, then placed in 1% KOH until destained, and finally in 80% glycerol for storage.
Inhibitors of Hh signaling were tested for an ability to inhibit the formation of HO in vivo. Matings were established between Prx1-cre+; Gαs^flox/− male and Gαs^flox/flox female mice. Pregnant females at gestational days E13.5, E15.5 and E17.5 were injected intraperitoneally with 5 mg/kg ATO. Pregnant mice are first weighed and then injected with care so as to avoid injection into uteri. Mice were sacrificed at E18.5, pups were collected, and stained for bone formation by Alizarin Red-Alcian Blue staining. Prx1-cre+; Gαs^flox/− pups from mice injected with vehicle control produced HO as evidenced by enhanced red staining in soft tissues. […]

| Compound | tissue mineralization, Von Kossa staining ([1]; Ad-Cre infected BMMC (Gαs removed)) | effect on mineralization in control cells, Von Kossa staining ([1]; Ad-GFP treated BMMC (control)) | expression of markers of Hh pathway activation (Ptch1, Gli1, HIP) by qRT-PCR [2] | HO in forelimb and hind limb, Alizarin Red-Alcian Blue staining ([3]; pregnant females injected intraperitoneally with 5 mg/kg ATO at E13.5, E15.5 and E17.5, pups collected at E18.5, vs vehicle control) | levels of HO in forelimbs and hind limbs, Alizarin Red-Alcian Blue skeletal prep ([3]; pregnant females injected with 5 μg/kg ATO at E13.5, E15.5 and E17.5, embryos collected at E18.5, relative to vehicle) |
| --- | --- | --- | --- | --- | --- |
| c1cc(-c2sc(-c3ccncc3)c(-c3ccncc3)c2-c2ccncc2)ccn1 [GANT-58] | inhibited by GANT-58 in a dose-dependent manner | No effect | – | – | – |
| arsenic trioxide [ATO] | – | – | dramatic reduction in the Hh pathway activation; also recorded: significantly reduced | significant reduction in HO | reduced levels of HO |
